Measurements taken from patent publication US9980482B2, “Synergistic compositions with plant protection agents” (multiBIND biotec GmbH, priority 2013, dated 2018).

How the values were obtained:
[1] = tested on: Candida parapsilosis and spores of Aspergillus niger; experiment: summary of tests with Candida parapsilosis and spores of Aspergillus niger; type: cell-based; parameters: key to synergistic effect in mixtures: + = low but significant; ++ = good; +++ = very good; details: for concentration without sufficient antimicrobial activity: conventional plant protection agent alone; for synergistic effect in mixtures: plant protection agent in mixtures (M1-M7, Table 2)
Experimental: (§1) A specific in vitro test system was designed with certified tester strains from Candida parapsilosis (DSM 70125) and spores from Aspergillus niger (DSM 1957) to define antimicrobial activities and synergistic effects. In all experiments freshly grown cultures of the listed microorganisms were adjusted to a cell number of about 10^5 in a 200 μl volume of the test solutions. Test solutions are in general: a) sterile water (H2O) as a negative control, b) conventional plant protection agent alone c) specific mixtures of essential oils, detergents, metal ions and organic acids, d) a plant protection composition according to the invention.
(§2) After a residence time of 15 min. (Candida parapsilosis) or 60 min. (Aspergillus niger) at room temperature the 200 μl samples containing the microorganisms and the test solutions were diluted and were plated in dilutions of 0, 10^−1 and 10^−2 with aliquots of 10 μl each onto growth media. After an incubation period of 2-5 days at 30° C. the grown colonies were determined and documented by digital photography.

[2] = tested on: Candida parapsilosis (DSM 70125); experiment: in vitro test of antimicrobial activity and synergistic effects on suspension cultures of Candida parapsilosis; type: cell-based; details: FIG. 4; for antimicrobial activities against Candida parapsilosis: agent alone at three concentrations (0.05%, 0.025%, 0.01%); for synergistic effect against Candida parapsilosis: in combination with mixture M1, all three concentrations (0.05%, 0.025%, 0.01%)
Experimental: as §1, §2

| Compound | concentration without sufficient antimicrobial activity [1] | synergistic effect in mixtures [1] | antimicrobial activities against Candida parapsilosis [2] | synergistic effect against Candida parapsilosis [2] |
| --- | --- | --- | --- | --- |
| CCCOC(=O)NCCCN(C)C [F1, Propamocarb] | 0.05% | + |  |  |
| OC(Cc1ccccc1Cl)(Cn1nc[nH]c1=S)C1(Cl)CC1 (centres unmarked) [F2, Prothioconazole] | 0.05% | + |  |  |
| CCNC(=O)NC(=O)/C(C#N)=N/OC [F3, Curzate] | 0.01% | +++ | do not show sufficient antimicrobial activities | show synergistic effects |
| N#Cc1c(Cl)c(Cl)c(Cl)c(C#N)c1Cl [F5, Chlorothalonil] | 0.05% | ++ | do not show sufficient antimicrobial activities | show synergistic effects |
| CO/C=C(/C(=O)OC)c1ccccc1Oc1cc(Oc2ccccc2C#N)ncn1 [F6, Azoxystrobin] | 0.07% | + |  |  |
| [Cl-].[Cu+2].[Cu+2].[OH-].[OH-].[OH-] [F7, Copperoxychlorid] | 0.05% | ++ |  |  |
| Mancozeb [F4] | 0.05% | +++ | do not show sufficient antimicrobial activities | show synergistic effects |
